Laboratory results as given in the supplement of paper PMC10307832.

Columns and labels:
Carfilzomib + Dasatinib = compound: CC(C)C[C@H](NC(=O)[C@H](CCc1ccccc1)NC(=O)CN1CCOCC1)C(=O)N[C@@H](Cc1ccccc1)C(=O)N[C@@H](CC(C)C)C(=O)[C@@]1(C)CO1 [Carfilzomib] + Cc1nc(Nc2ncc(C(=O)Nc3c(C)cccc3Cl)s2)cc(N2CCN(CCO)CC2)n1 [Dasatinib] (partner 0.075 µM); test: relative viability (nuclei count vs DMSO), 5 days (fraction); higher = more cells survive
Method in brief: (§1)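 Relative viability divides the nuclei count in treated wells by that in vehicle wells. Lung cancer cell lines were seeded in 1536-well plates, dosed by pin tool the next day, and fixed and stained after 5 days in one step with final 0.05% Triton X-100, 1% formaldehyde and 1 ug/ml Hoechst. Dosing was a single drug or a fixed anchor-drug dose plus five library-drug doses (not always all listed) in √10 steps, and values are medians of duplicate plates imaged at 4×.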

Crizotinib + Palbociclib = compound: C[C@@H](Oc1cc(-c2cnn(C3CCNCC3)c2)cnc1N)c1c(Cl)ccc(F)c1Cl [Crizotinib] + CC(=O)c1c(C)c2cnc(Nc3ccc(N4CCNCC4)cn3)nc2n(C2CCCC2)c1=O [Palbociclib] (partner 0.5 µM); test: as above
Method in brief: as §1

| Cell Line | relative viability (Carfilzomib + Dasatinib; first compound 0.001 µM) | relative viability (Carfilzomib + Dasatinib; first compound 0.003162 µM) | relative viability (Carfilzomib + Dasatinib; first compound 0.01 µM) | relative viability (Carfilzomib + Dasatinib; first compound 0.03162 µM) | relative viability (Carfilzomib + Dasatinib; first compound 0.1 µM) | relative viability (Crizotinib + Palbociclib; first compound 0.01 µM) | relative viability (Crizotinib + Palbociclib; first compound 0.03162 µM) | relative viability (Crizotinib + Palbociclib; first compound 0.1 µM) | relative viability (Crizotinib + Palbociclib; first compound 0.3162 µM) | relative viability (Crizotinib + Palbociclib; first compound 1 µM) |
| --- | --- | --- | --- | --- | --- | --- | --- | --- | --- | --- |
| NCI-H647 | 0.198 | 0.21 | 0.149 | 0.0266 | 0.0232 | 0.358 | 0.421 | 0.368 | 0.404 | 0.526 |
| NCI-H650 | – | 0.515 | 0.457 | 0.359 | 0.164 | 0.346 | 0.32 | 0.352 | – | 0.375 |
| NCI-H661 | 0.911 | 1.07 | 1.03 | 0.72 | 0.172 | 0.376 | 0.425 | 0.44 | 0.435 | 0.423 |
| NCI-H727 | 0.386 | 0.333 | 0.491 | 0.216 | 0.174 | 0.703 | 0.621 | 0.655 | 0.639 | 0.595 |
| NCI-H838 | 0.321 | 0.333 | 0.291 | 0.267 | 0.182 | 0.178 | 0.248 | 0.225 | 0.239 | 0.236 |
| NCI-H1355 | 0.628 | 0.785 | 0.686 | 0.382 | 0.264 | 0.415 | 0.378 | 0.387 | 0.406 | 0.406 |
| NCI-H1395 | 0.411 | 0.426 | 0.417 | 0.36 | 0.314 | 0.608 | 0.593 | 0.625 | 0.596 | 0.643 |
| NCI-H1437 | 0.28 | 0.483 | 0.419 | 0.257 | 0.133 | 0.283 | 0.328 | 0.302 | 0.309 | 0.356 |
| NCI-H1563 | 0.431 | 0.463 | 0.488 | 0.505 | 0.367 | – | – | – | – | – |
| NCI-H1623 | 0.509 | 0.571 | 0.599 | 0.271 | 0.642 | – | – | – | – | – |
| NCI-H1648 | – | – | – | – | – | – | 0.262 | 0.264 | 0.275 | 0.318 |
| NCI-H1650 | 0.282 | 0.304 | 0.207 | 0.165 | 0.172 | 0.26 | 0.359 | 0.379 | 0.391 | 0.319 |
| NCI-H1651 | 0.361 | 0.295 | 0.266 | 0.104 | 0.0779 | 0.507 | 0.544 | 0.505 | 0.534 | 0.529 |
| NCI-H1666 | 0.812 | 0.878 | 0.817 | 0.568 | 0.352 | 0.678 | 0.685 | 0.712 | 0.625 | 0.623 |
| NCI-H1734 | 0.462 | 0.503 | 0.487 | 0.2 | 0.148 | 0.346 | 0.327 | 0.327 | – | 0.341 |
| NCI-H1755 | 0.428 | 0.45 | 0.479 | 0.365 | 0.263 | 0.465 | 0.445 | 0.445 | 0.457 | 0.451 |
| NCI-H1792 | 0.753 | 0.9 | 0.918 | 0.657 | 0.649 | 0.588 | 0.692 | 0.639 | – | 0.68 |
| NCI-H1915 | 0.271 | 0.344 | 0.299 | 0.174 | 0.102 | 0.517 | 0.525 | 0.488 | 0.51 | 0.476 |

| Cell Line | relative viability (Carfilzomib + Dasatinib; first compound 0.001 µM) | relative viability (Carfilzomib + Dasatinib; first compound 0.003162 µM) | relative viability (Carfilzomib + Dasatinib; first compound 0.01 µM) | relative viability (Carfilzomib + Dasatinib; first compound 0.03162 µM) | relative viability (Carfilzomib + Dasatinib; first compound 0.1 µM) | relative viability (Crizotinib + Palbociclib; first compound 0.01 µM) | relative viability (Crizotinib + Palbociclib; first compound 0.03162 µM) | relative viability (Crizotinib + Palbociclib; first compound 0.1 µM) | relative viability (Crizotinib + Palbociclib; first compound 0.3162 µM) | relative viability (Crizotinib + Palbociclib; first compound 1 µM) |
| --- | --- | --- | --- | --- | --- | --- | --- | --- | --- | --- |
| NCI-H1944 | 0.214 | 0.233 | 0.186 | 0.203 | 0.135 | 0.284 | 0.315 | 0.307 | 0.345 | 0.344 |
| NCI-H1975 | – | 0.33 | 0.144 | 0.0922 | 0.107 | 0.594 | 0.792 | 0.554 | 0.475 | 0.493 |
| NCI-H1993 | 0.604 | 0.597 | 0.581 | 0.467 | 0.453 | 0.641 | 0.67 | 0.666 | 0.535 | 0.426 |
| NCI-H2009 | 0.293 | 0.386 | 0.3 | 0.113 | 0.0713 | 0.185 | 0.208 | 0.249 | 0.189 | 0.193 |
| NCI-H2023 | 0.569 | 0.698 | 0.59 | 0.181 | 0.082 | 0.356 | 0.308 | 0.353 | 0.229 | 0.236 |
| NCI-H2085 | 0.239 | 0.256 | 0.255 | 0.249 | 0.192 | 0.464 | 0.484 | 0.469 | 0.442 | 0.44 |
| NCI-H2087 | 0.781 | 0.994 | 0.465 | 0.0405 | 0.0695 | 0.178 | 0.244 | 0.213 | 0.229 | 0.23 |
| NCI-H2126 | 0.655 | 0.641 | 0.705 | 0.655 | 0.268 | 0.313 | 0.385 | 0.37 | 0.342 | 0.351 |
| NCI-H2170 | 0.56 | 0.519 | 0.832 | 0.352 | 0.237 | 0.38 | 0.435 | 0.362 | 0.384 | 0.381 |
| NCI-H2228 | 0.539 | 0.526 | 0.442 | 0.0721 | 0.0819 | 0.714 | 0.608 | 0.691 | 0.432 | 0.367 |
| NCI-H2342 | 0.364 | 0.32 | 0.355 | 0.374 | 0.321 | 0.527 | 0.549 | 0.531 | 0.485 | 0.576 |
| NCI-H2347 | 0.335 | – | 0.338 | 0.197 | 0.173 | 0.384 | 0.441 | 0.465 | 0.437 | 0.335 |
| NCI-H2405 | – | 0.218 | 0.203 | 0.247 | 0.188 | 0.479 | 0.515 | 0.509 | 0.56 | 0.501 |
| NCI-H3122 | 0.868 | 0.925 | 0.909 | 0.69 | 0.162 | 0.176 | 0.184 | 0.16 | 0.2 | 0.187 |
| PC-3 [JPC-3] | 0.914 | 0.972 | 0.996 | 0.597 | 0.428 | 0.53 | 0.566 | 0.545 | – | 0.553 |
| PC-14 | 0.311 | 0.305 | 0.241 | 0.0289 | 0.0424 | 0.52 | 0.53 | 0.419 | 0.566 | 0.535 |
| RERF-LC-KJ | 0.792 | 0.82 | 0.867 | 0.388 | 0.184 | 0.98 | 1.12 | 0.925 | 0.991 | 1.06 |
